# Results as given in PMC8617681 (Pharmaceuticals, 2021).
# “Also recorded” adds a separate entry of the source.
# Legend:
# [1] = 4 h pharmacokinetic pilot study in wild-type, Abcb1a/1b;Abcg2-/- and Slco1a/1b-/- mice; type: in vivo; details: for abnormal external behavior (acute toxicity): 10 mg/kg oral
# Procedure: Mice were housed and handled according to institutional guidelines complying with Dutch and EU legislation. All experimental animal protocols were evaluated and approved by the institutional animal care and use committee. Wild-type, Abcb1a/1b^-/-, Abcg2^-/-, Abcb1a/1b; Abcg2^-/-, Slco1a/1b^-/- male mice, and Cyp3a^-/- and Cyp3aXAV female mice, all of a >99% FVB genetic background, were used between 9 and 16 weeks of age. […] All experimental animal protocols (WP9450, 9669, 9760), including power calculations, designed under the nationally approved DEC/CCD project AVD301002016595, were evaluated and approved by the institutional animal care and use committee of The Netherlands Cancer Institute. […]
# For the 4 h transporter experiments, tail-vein blood samples were collected at 0.125, 0.25, 0.5, 1, and 2 h time points after oral administration, respectively. For the CYP3A 8 h experiments, tail-vein blood sampling was performed at 0.25, 0.5, 1, 2, and 4 h, respectively. While for elacridar inhibition experiments, tail-vein blood samples were collected at 0.125, 0.25, 0.5, and 1 h time points after oral administration, respectively. Blood sample collection was performed using microvettes containing dipotassium EDTA. At the last time point in each experiment (2, 4 or 8 h), mice were anesthetized with 5% isoflurane and blood was collected by cardiac puncture. Blood samples were collected in Eppendorf tubes containing heparin as an anticoagulant. The mice were then sacrificed by cervical dislocation and brain, liver, kidney, lung, small intestine and testis were rapidly removed. Plasma was isolated from the blood by centrifugation at 9000× g for 6 min at 4 °C, and the plasma fraction was collected and stored at −30 °C until analysis. Organs were homogenized with 4% (w/v) bovine serum albumin and stored at −30 °C until analysis.
# Pharmacokinetic parameters were calculated by noncompartmental methods using the PK solver software. The area under the plasma concentration–time curve (AUC) was calculated using the trapezoidal rule, without extrapolating to infinity. The peak plasma concentration (Cmax) and the time of maximum plasma concentration (Tmax) were estimated from the original (individual mouse) data. One-way analysis of variance (ANOVA) was used when multiple groups were compared and the Tukey post hoc correction was used to accommodate multiple testing. The two-sided unpaired Student’s t-test was used when treatments or differences between two specific groups were compared using the software GraphPad Prism 8 (GraphPad Software Inc., La Jolla, CA, USA). All the data were log-transformed before statistical tests were applied. Differences were considered statistically significant when p < 0.05. All data are presented as geometric mean ± SD.
# [2] = system: CNS metastasis; details: 11 patients with measurable CNS lesions, cited from earlier work
# [3] = target: T1, human OATP1B1 (Homo sapiens, UniProt Q9Y6L6); experiment: Cellular uptake in OATP1B1-overexpressing HEK293 cells; type: in vitro ADME; details: 5 µM, 2.5 min incubation, HEK293 OATP1B1
# T1 construct: Werner Siegmund and Dr. Markus Keiser (University of Greifswald); host or cells: HEK293
# T1 sequence (Q9Y6L6 1-691): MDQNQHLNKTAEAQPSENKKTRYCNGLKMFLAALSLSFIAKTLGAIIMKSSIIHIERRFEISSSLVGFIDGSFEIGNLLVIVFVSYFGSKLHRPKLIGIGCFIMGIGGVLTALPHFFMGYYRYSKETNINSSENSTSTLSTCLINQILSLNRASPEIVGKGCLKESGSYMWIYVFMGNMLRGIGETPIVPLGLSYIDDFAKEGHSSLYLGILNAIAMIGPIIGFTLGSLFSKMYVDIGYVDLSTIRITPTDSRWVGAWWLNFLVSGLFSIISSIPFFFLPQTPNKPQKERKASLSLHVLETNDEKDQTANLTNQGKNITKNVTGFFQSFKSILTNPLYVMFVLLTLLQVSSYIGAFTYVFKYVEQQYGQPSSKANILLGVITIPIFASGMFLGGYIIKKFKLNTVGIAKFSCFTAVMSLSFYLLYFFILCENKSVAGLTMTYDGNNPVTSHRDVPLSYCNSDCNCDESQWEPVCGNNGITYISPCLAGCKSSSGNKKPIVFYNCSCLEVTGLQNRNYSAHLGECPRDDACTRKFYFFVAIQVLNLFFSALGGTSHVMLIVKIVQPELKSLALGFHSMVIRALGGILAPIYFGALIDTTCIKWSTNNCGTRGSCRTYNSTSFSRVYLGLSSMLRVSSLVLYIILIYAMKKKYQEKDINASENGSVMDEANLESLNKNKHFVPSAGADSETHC
# Procedure: HEK293 cells, vector-transfected or human (h)SLCO1A2, hSLCO1B1 or hSLCO1B3 cDNA-transfected were kind gifts from Prof. Werner Siegmund and Dr. Markus Keiser (University of Greifswald, Greifswald, Germany). All the HEK293 cell lines were maintained in DMEM supplemented with 10% (v/v) FBS, 1% penicillin–streptomycin mix at 37 °C in 5% (v/v) CO2 and 500 μg/mL G418. Cells were first seeded in 12-well plates [coated with 50 mg/L poly (l-lysine) and 50 mg/L poly (l-ornithine)] at a density of 1.0 × 10^5 cells/well. For the uptake study, in order to induce the expression of OATP transporters, the cell culture medium was replaced with culture medium supplemented with 5 mM sodium butyrate 24 h before performing the uptake assay.
# The uptake transport study was performed as described previously. […] The Krebs–Henseleit solution was prepared from Krebs–Henseleit-buffer modified powder and supplemented with 25 mM NaHCO3 and 2.5 mM CaCl2 adjusted to pH 6.4 with 1 M HCL. At 2.5 min, the incubation buffer was removed, and uptake was terminated by adding 1 mL of ice-cold Krebs–Henseleit buffer, followed by two times washing with 1 mL of ice-cold Krebs–Henseleit buffer. […] The cellular protein amount was determined by the Bradford method using 10 μL of the cell lysates with bovine serum albumin as a standard.
# [4] = male, FVB (Abcb1a/1b;Abcg2-/-), mouse, in vivo, po, 10 mg/kg, 4 h
# [5] = male, FVB (Slco1a/1b-/-), mouse, in vivo, po, 10 mg/kg, 4 h
# [6] = male, FVB background, Abcb1a/1b;Abcg2-/-, mouse, in vivo, po, 10 mg/kg
# [7] = male, FVB background, Slco1a/1b-/-, mouse, in vivo, po, 10 mg/kg
# [8] = male, FVB background, wild-type, mouse, in vivo, po, 10 mg/kg
compound,measurement,setting,value
COc1ccc(CN2C3CC2CN(c2ccc(-c4cc(OCC(C)(C)O)cn5ncc(C#N)c45)cn2)C3)cn1 [selpercatinib],abnormal external behavior (acute toxicity),[1]; Abcb1a/1b;Abcg2-/- mice,did not observe any abnormal external behavior
same,abnormal external behavior (acute toxicity),"[1]; Slco1a/1b-/- mice, 10 mg/kg",did not show any abnormal external behavior; also recorded: did not observe any abnormal external behavior
same,CSIC (small intestine contents concentration),[1]; [4],"34,929 ± 16,659 ng/g"
same,Cliver,[1]; [4],"19,077 ± 2696 ng/g"
same,concentration at 4 h,"[1]; male, FVB (Abcb1a/1b;Abcg2-/-), mouse, in vivo, po, 10 mg/kg, CSIC (small intestine contents concentration)",34900 ng/g
same,concentration at 4 h,"[1]; male, FVB (Abcb1a/1b;Abcg2-/-), mouse, in vivo, po, 10 mg/kg, Cbrain",3450 ng/g
same,concentration at 4 h,"[1]; male, FVB (Abcb1a/1b;Abcg2-/-), mouse, in vivo, po, 10 mg/kg, Cliver",19100 ng/g
same,concentration at 4 h,"[1]; male, FVB (Abcb1a/1b;Abcg2-/-), mouse, in vivo, po, 10 mg/kg, Ctestis",5730 ng/g
same,Cbrain,[1]; [5],278 ± 42 ng/g
same,Cliver,[1]; [5],"19,916 ± 3174 ng/g"
same,concentration at 4 h,"[1]; male, FVB (Slco1a/1b-/-), mouse, in vivo, po, 10 mg/kg, Cbrain",278 ± 42 ng/g
same,concentration at 4 h,"[1]; male, FVB (Slco1a/1b-/-), mouse, in vivo, po, 10 mg/kg, Cliver",19900 ng/g
same,concentration at 4 h,"[1]; male, FVB (Slco1a/1b-/-), mouse, in vivo, po, 10 mg/kg, Ctestis",1120 ng/g
same,Cliver,"[1]; male, FVB (wild-type), mouse, in vivo, po, 10 mg/kg, 4 h","17,593 ± 3471 ng/g"
same,concentration at 4 h,"[1]; male, FVB (wild-type), mouse, in vivo, po, 10 mg/kg, Cliver",17600 ng/g
same,AUC(0-t),[1]; [6],30200 ng·h/mL
same,Cmax,[1]; [6],8580 ± 2160 ng/mL
same,Tmax,[1]; [6],1.6 ± 1.2 h
same,AUC(0-t),[1]; [7],36200 ng·h/mL
same,Cmax,[1]; [7],11600 ng/mL
same,Tmax,[1]; [7],1.7 ± 0.52 h
same,concentration at 4 h,"[1]; male, FVB background, Slco1a/1b-/-, mouse, in vivo, po, 10 mg/kg, CSIC (small intestine contents concentration)",141000 ng/g
same,AUC(0-t),[1]; [8],26600 ng·h/mL
same,Cmax,[1]; [8],7860 ± 1810 ng/mL
same,Tmax,[1]; [8],1.8 ± 1.2 h
same,concentration at 4 h,"[1]; male, FVB background, wild-type, mouse, in vivo, po, 10 mg/kg, CSIC (small intestine contents concentration)",91100 ng/g
same,concentration at 4 h,"[1]; male, FVB background, wild-type, mouse, in vivo, po, 10 mg/kg, Cbrain",186 ± 23 ng/g
same,concentration at 4 h,"[1]; male, FVB background, wild-type, mouse, in vivo, po, 10 mg/kg, Ctestis",730 ± 103 ng/g
same,percentage with an objective intracranial response,[2]; independent review,91%
same,complete responses (intracranial),[2],27%
same,partial responses (intracranial),[2],64%
same,uptake compared to vector control cells,[3],did not observe any significant increase in the uptake
